Assay results taken from patent US11041009B2, “Glucose responsive insulin comprising a tri-valent sugar cluster for treatment of diabetes” (Merck Sharp & Dohme Corp., priority 2017, dated 2021).

How the values were obtained:
[1] = biological target: T1, human IR(B) (Homo sapiens, UniProt P06213); experiment: Insulin Receptor Phosphorylation Assay (MSD pIR assay; Methods A and B); format: cell-based; conditions: Method B: IR phosphorylation assay, 384-well with automated liquid dispense; CHO cells expressing human IR(B); read-out: IR Activation IP†
T1 construct: expressed in transfected cells
T1 sequence (P06213 28-758 limits assumed): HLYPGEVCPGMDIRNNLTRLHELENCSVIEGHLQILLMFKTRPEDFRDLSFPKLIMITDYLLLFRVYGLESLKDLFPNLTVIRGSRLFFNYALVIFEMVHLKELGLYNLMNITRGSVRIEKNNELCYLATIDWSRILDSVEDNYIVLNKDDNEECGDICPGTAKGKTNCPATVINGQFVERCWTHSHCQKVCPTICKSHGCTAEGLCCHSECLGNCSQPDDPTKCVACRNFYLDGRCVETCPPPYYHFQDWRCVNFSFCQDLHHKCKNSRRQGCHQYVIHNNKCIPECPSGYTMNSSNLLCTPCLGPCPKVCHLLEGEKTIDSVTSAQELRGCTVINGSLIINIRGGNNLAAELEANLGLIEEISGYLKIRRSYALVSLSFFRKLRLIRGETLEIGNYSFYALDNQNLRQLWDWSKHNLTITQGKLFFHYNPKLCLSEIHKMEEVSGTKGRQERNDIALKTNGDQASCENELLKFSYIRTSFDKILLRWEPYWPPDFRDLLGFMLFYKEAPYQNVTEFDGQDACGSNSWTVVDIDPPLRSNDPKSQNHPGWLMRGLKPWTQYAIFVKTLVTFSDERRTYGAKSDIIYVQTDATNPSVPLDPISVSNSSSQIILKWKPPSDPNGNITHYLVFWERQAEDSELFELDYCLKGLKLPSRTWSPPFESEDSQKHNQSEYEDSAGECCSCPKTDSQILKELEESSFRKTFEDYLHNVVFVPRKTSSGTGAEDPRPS
T1 sequence (P06213 763-1382 partner limits assumed): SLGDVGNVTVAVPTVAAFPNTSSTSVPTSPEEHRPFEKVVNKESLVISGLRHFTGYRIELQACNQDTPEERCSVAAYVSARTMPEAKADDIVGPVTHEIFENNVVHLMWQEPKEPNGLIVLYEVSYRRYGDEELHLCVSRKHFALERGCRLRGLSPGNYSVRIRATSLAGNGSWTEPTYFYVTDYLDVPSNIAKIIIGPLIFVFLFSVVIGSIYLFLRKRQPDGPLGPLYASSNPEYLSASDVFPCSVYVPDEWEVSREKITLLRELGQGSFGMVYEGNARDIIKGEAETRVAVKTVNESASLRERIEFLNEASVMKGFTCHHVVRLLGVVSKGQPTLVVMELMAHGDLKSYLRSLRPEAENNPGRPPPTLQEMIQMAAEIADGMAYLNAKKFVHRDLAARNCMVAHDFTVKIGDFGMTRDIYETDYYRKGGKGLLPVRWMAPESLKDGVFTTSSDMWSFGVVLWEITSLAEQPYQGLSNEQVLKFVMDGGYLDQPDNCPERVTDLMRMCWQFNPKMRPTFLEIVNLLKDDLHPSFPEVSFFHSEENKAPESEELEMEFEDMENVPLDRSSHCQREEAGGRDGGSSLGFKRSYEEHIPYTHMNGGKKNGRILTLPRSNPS
Method: Insulin Receptor Phosphorylation Assays were performed as follows.
Cells were harvested and frozen in aliquots for use in the MSD pIR assay. Briefly, the frozen cells were plated in either 96-well (40,000 cells/well, Method A) or 384-well (10,000 cells/well, Method B) clear tissue culture plates and allowed to recover. IOC molecules at the appropriate concentrations were added and the cells incubated for 8 min at 37° C. The media was aspirated and chilled MSD cell lysis buffer was added as per MSD kit instructions. The cells were lysed on ice for 40 min and the lysate then mixed for 10 minutes at room temperature. The lysate was transferred to the MSD kit pIR detection plates. The remainder of the assay was carried out following the MSD kit recommended protocol.

[2] = biological target: T2, Human macrophage mannose receptor 1 (MRC1) (Homo sapiens, UniProt P22897); experiment: MRC1 competition binding assay with Eu-labeled mannosylated-BSA (Methods E and F); conditions: Method F: MRC1 assay in a 384-well plate; read-out: MRC1 Binding IP‡
T2 sequence (P22897 19-1456): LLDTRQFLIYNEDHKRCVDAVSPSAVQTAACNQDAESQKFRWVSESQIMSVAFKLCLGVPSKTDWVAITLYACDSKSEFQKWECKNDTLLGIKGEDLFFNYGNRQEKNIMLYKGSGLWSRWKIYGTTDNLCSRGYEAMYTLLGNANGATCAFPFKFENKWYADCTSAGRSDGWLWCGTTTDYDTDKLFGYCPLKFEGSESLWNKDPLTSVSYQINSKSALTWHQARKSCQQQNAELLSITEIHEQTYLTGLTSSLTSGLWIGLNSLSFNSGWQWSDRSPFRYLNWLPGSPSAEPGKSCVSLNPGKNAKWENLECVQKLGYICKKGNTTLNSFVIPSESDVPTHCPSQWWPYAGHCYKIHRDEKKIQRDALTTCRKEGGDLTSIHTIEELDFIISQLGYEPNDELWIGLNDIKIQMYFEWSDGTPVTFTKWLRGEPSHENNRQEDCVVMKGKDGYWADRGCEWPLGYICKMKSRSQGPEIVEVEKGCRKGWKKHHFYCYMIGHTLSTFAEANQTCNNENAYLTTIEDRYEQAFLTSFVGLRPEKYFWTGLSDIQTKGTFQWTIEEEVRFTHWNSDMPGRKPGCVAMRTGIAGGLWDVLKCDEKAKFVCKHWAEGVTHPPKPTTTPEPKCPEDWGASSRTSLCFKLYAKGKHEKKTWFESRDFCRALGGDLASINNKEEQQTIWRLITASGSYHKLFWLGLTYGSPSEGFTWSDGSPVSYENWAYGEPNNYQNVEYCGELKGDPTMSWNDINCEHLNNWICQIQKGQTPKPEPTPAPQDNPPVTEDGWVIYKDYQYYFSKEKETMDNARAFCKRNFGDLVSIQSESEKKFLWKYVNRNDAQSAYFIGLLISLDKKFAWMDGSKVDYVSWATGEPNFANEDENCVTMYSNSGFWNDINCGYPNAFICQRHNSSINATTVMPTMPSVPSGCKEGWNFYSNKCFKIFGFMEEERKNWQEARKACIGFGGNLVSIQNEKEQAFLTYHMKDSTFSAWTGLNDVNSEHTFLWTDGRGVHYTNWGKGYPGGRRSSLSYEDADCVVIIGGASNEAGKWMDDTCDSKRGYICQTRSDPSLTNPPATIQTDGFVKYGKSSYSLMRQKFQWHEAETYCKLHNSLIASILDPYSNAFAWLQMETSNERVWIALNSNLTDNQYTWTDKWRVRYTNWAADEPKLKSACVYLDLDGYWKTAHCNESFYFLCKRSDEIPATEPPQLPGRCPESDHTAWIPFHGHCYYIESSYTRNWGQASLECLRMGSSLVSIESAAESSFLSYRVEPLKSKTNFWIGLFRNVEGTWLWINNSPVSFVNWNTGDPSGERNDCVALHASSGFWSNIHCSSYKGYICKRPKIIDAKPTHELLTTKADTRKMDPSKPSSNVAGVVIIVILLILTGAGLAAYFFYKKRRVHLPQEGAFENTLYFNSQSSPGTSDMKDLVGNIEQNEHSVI
Method: Human macrophage mannose receptor 1 (MRC1) Binding Assays were performed as follows.
The competition binding assay for MRC1 utilized a ligand, mannosylated-BSA labeled with the DELFIA Eu-N1-ITC reagent, as reported in the literature. Assay was performed either in a 96-well plate with 100 μL well volume (Method E) or in a 384-well plate with 25 μL well volume (Method F). […] The antibody was incubated in the plate for 1 hr at room temperature with shaking. The plate was washed with wash buffer 3-5 times followed by addition of MRC1 (2 ng/μl final concentration) in PBS containing 1% stabilizer BSA. The plate was incubated at room temperature with gentle shaking for 1 hr. The plate was washed three times with wash buffer. The IOC molecules in 12.5 μL (or 50 μL depending on plate format) buffer at appropriate concentrations were added followed by 12.5 μL (or 50 μL) Eu-mannosylated-BSA (0.1 nM final concentration) in 50 mM Tris, pH 7.5 containing 100 mM NaCl, 5 mM CaCl2, 1 mM MgCl2 and 0.2% stabilizer BSA. The plate was incubated for 2 hrs at room temperature with shaking followed by washing three times with wash buffer. Perkin Elmer Eu-inducer reagent was added and incubated for 30 min at room temperature prior to detection of the Eu signal (Excitation=340 nm: Emission=615 nm).

[3] = biological target: human insulin receptor type B (IR(B)) (Homo sapiens, UniProt P06213); experiment: Insulin Receptor Binding Assay, scintillation proximity assay with cell membranes (Method D)
Chain of human insulin receptor type B (IR(B)) (P06213 28-758 limits assumed): as the sequence (P06213 28-758 limits assumed) above
Chain of human insulin receptor type B (IR(B)) (P06213 763-1382 partner limits assumed): as the sequence (P06213 763-1382 partner limits assumed) above

CC[C@H](C)[C@H](NC(=O)CN)C(=O)N[C@H](C(=O)N[C@@H](CCC(=O)O)C(=O)N[C@@H](CCC(N)=O)C(=O)N[C@H]1CSSC[C@@H]2NC(=O)[C@H]([C@@H](C)CC)NC(=O)[C@H](CO)NC(=O)[C@H]([C@@H](C)O)NC(=O)[C@H](CSSC[C@H](NC(=O)[C@H](CC(C)C)NC(=O)[C@H](Cc3c[nH]cn3)NC(=O)[C@H](CCC(N)=O)NC(=O)[C@H](CC(N)=O)NC(=O)[C@@H](NC(=O)[C@H](Cc3ccccc3)NC(=O)CCCCC(=O)N(CC(=O)NCCO[C@@H]3O[C@H](CO)[C@@H](O)[C@H](O)[C@H]3O)CC(=O)N(CCO[C@H]3O[C@H](CO)[C@@H](O)[C@H](O)[C@@H]3O)CCO[C@H]3O[C@H](CO)[C@@H](O)[C@H](O)[C@@H]3O)C(C)C)C(=O)NCC(=O)N[C@@H](CO)C(=O)N[C@@H](Cc3c[nH]cn3)C(=O)N[C@@H](CC(C)C)C(=O)N[C@@H](C(C)C)C(=O)N[C@@H](CCC(=O)O)C(=O)N[C@@H](C)C(=O)N[C@@H](CC(C)C)C(=O)N[C@@H](Cc3ccc(O)cc3)C(=O)N[C@@H](CC(C)C)C(=O)N[C@@H](C(C)C)C(=O)N[C@H](C(=O)NCC(=O)N[C@@H](CCC(=O)O)C(=O)N[C@@H](CCCNC(=N)N)C(=O)NCC(=O)N[C@@H](Cc3ccccc3)C(=O)N[C@@H](Cc3ccccc3)C(=O)N[C@@H](Cc3ccc(O)cc3)C(=O)N[C@H](C(=O)N3CCC[C@H]3C(=O)N[C@@H](CCCCNC(=O)CCCCC(=O)N(CC(=O)NCCO[C@@H]3O[C@H](CO)[C@@H](O)[C@H](O)[C@H]3O)CC(=O)N(CCO[C@H]3O[C@H](CO)[C@@H](O)[C@H](O)[C@@H]3O)CCO[C@H]3O[C@H](CO)[C@@H](O)[C@H](O)[C@@H]3O)C(=O)N[C@H](C(=O)O)[C@@H](C)O)[C@@H](C)O)CSSC[C@@H](C(=O)N[C@@H](CC(N)=O)C(=O)O)NC(=O)[C@H](Cc3ccc(O)cc3)NC(=O)[C@H](CC(N)=O)NC(=O)[C@H](CCC(=O)O)NC(=O)[C@H](CC(C)C)NC(=O)[C@H](CCC(N)=O)NC(=O)[C@H](Cc3ccc(O)cc3)NC(=O)[C@H](CC(C)C)NC(=O)[C@H](CO)NC2=O)NC1=O)C(C)C [IOC-63]
EC50 [1]: 0.63 nM | IC50 [2]: 70.2 nM | IC50 [3]: 1.65 nM
